The values below come from PubChem BioAssay AID743339 (Broad Institute, 2014).

Each structure is given as a SMILES string. Activity calls are given as the source filed them.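 How the source made its calls: active means activation curve crossing 200% at or below the highest valid dose tested for that sample; inconclusive means flat curve with activation between 30 and 70%, or poor fit; inactive means the rest, including signal falling instead of rising.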

Sequence of Leucyl-cystinyl aminopeptidase (Mus musculus) (Q8C129 whole entry, looked up): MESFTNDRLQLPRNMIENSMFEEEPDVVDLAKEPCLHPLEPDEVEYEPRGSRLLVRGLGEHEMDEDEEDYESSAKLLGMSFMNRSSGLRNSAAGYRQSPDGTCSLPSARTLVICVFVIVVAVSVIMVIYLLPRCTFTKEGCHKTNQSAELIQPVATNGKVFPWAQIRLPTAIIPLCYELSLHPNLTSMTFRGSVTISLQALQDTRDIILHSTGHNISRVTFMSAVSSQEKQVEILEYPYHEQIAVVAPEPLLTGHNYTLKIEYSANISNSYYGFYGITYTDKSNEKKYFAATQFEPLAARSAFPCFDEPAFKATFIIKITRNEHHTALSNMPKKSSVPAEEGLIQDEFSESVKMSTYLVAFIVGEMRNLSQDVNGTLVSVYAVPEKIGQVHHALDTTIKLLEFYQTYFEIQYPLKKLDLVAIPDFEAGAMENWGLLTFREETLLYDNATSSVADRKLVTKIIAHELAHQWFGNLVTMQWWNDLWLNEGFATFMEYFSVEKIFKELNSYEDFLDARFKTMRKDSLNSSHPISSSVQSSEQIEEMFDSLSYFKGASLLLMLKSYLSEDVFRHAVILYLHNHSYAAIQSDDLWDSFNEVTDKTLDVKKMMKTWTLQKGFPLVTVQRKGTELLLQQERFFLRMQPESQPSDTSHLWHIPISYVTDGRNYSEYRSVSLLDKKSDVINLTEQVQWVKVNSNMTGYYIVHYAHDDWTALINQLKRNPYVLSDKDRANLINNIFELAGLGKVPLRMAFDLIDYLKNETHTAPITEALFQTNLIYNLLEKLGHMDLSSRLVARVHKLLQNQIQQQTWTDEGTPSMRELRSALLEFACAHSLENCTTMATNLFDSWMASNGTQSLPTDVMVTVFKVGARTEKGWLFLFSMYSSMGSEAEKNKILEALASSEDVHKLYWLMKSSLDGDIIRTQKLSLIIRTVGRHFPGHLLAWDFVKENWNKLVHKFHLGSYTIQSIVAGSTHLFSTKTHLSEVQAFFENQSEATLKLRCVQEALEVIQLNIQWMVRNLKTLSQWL

One test addresses Leucyl-cystinyl aminopeptidase (Mus musculus) (UniProt Q8C129). Kind of test: IRAP activators, dose response, selectivity assay for ERAP1 modulator project, biochemical, Leu-AMC fluorescence, cherry-picked samples (AID 743339). The conditions noted are these: purified IRAP, Leu-AMC cleavage fluorescence, 1 h.
On to `CCNC(=O)[C@H]1[C@H](CO)[C@H]2Cn3c(ccc(/C=C/c4ccccc4)c3=O)[C@@H]1N2C(=O)C1CCCC1`, for which the AC200 is 675 nM. As to `Cc1c(C)c2ccc(O)c(CN3CCCC3)c2oc1=O`, the AC200 is 1040 nM. As to `COc1cccc(CN(C)Cc2cc(=O)oc3cc(O)c(Cl)cc23)c1`, the AC200 was 793 nM.

For the compound `Cc1c(-c2ccccc2)c(=O)oc2cc(O)ccc12`, the AC200 was 1240 nM.

Regarding `Cc1cc(=O)oc2c(CN3CCCC3)c(O)c(Cl)cc12`, the AC200 is 673 nM.

The same test, now with this note: purified IRAP, Leu-AMC cleavage fluorescence, 1 h; at 10 µM (top of the series).
For the compound `Cc1noc(C)c1S(=O)(=O)N(C)C[C@@H]1OCCCC[C@@H](C)Oc2ccc(NS(=O)(=O)c3cccs3)cc2C(=O)N([C@@H](C)CO)C[C@@H]1C`, the activation is -12.6% (inactive).

Staying with this test, now noted: purified IRAP, Leu-AMC cleavage fluorescence, 1 h; at 11 µM (top of the series).
With `Cc1noc(C)c1NC(=O)N(C)C[C@@H]1Oc2c(NC(=O)Nc3ccccc3)cccc2C(=O)N([C@H](C)CO)C[C@@H]1C`, the activation is 12.9% (inactive). With `C[C@@H]1CCCCO[C@H](CN(C)C)[C@H](C)CN([C@H](C)CO)C(=O)c2cc(NS(=O)(=O)c3ccc(Cl)cc3)ccc2O1`, the activation was 8.36% (inactive).

Take `CCC(=O)N(C)C[C@H]1Oc2ncc(C#Cc3ccncc3)cc2C(=O)N([C@H](C)CO)C[C@H]1C`: the activation is 4.22% (inactive). Take `COc1ccc(CN(C)C[C@@H]2OCCCC[C@@H](C)Oc3ccc(NS(=O)(=O)c4c(C)noc4C)cc3C(=O)N([C@@H](C)CO)C[C@@H]2C)cc1`: the activation is -18.2% (inactive). In the case of `CCn1cc(CN2CCCC(C(=O)Nc3ccc(-c4nc5ccccc5[nH]4)cc3)C2)c(C)n1` (centres undefined), the activation was -5.33% (inactive). Turning to `C[C@H](CO)N1C[C@H](C)[C@H](CN(C)Cc2ccncc2)Oc2c(NC(=O)Nc3ccc(C(F)(F)F)cc3)cccc2C1=O`, the activation was 10.6% (inactive).

Take `COc1ccc(C(=O)O)cc1S(=O)(=O)Nc1cc(C(F)(F)F)ccc1N1CCCCC1`: the activation was 18.7% (inactive).

As for `COc1ccc(CN(C)C[C@@H]2OCCCC[C@H](C)Oc3ccc(NS(=O)(=O)c4cccs4)cc3C(=O)N([C@@H](C)CO)C[C@@H]2C)cc1`, the activation is 10.9% (inactive). For the compound `C[C@H]1CN([C@@H](C)CO)C(=O)c2cccc(NC(=O)Nc3ccc4c(c3)OCO4)c2O[C@@H]1CN(C)CC1CC1`, the activation was -1.26% (inactive).

As to `O=C(CSc1cn[nH]n1)Nc1cccc(C(=O)O)c1`, the activation was 17.4% (inactive). Consider `O=C(Nc1ccc(C(F)(F)F)cc1)N1[C@@H]2CNC[C@H]1C2c1ccc(-c2ccncc2)cc1` (some centres undefined), for which the activation was 4.27% (inactive). Still for that read-out and setting: then `CCCN(C)C[C@@H]1OCCCC[C@H](C)Oc2ccc(NC(=O)Nc3ccc(F)cc3)cc2C(=O)N([C@H](C)CO)C[C@@H]1C`, with -36.2% (inactive); and `O=C(O)c1cccc(NC(=O)c2ccccc2NC(=O)c2cccc([N+](=O)[O-])c2)c1`, with 8.03% (inactive).
